Reference: article PMC8815882, “Screening the pandemic response box identified benzimidazole carbamates, Olorofim and ravuconazole as promising drug candidates for the treatment of eumycetoma” (PLoS Neglected Tropical Diseases, 2022)
Like-named read-outs stand apart in the source and are kept apart here. One block for each compound: values may come before it.

How the values were obtained:
[1] = test system: M. mycetomatis genome strain MM55; assay: CLSI M38-A2 based in vitro susceptibility screening (XTT or resazurin), growth at fixed concentration; assay type: cell-based, Madurella mycetomatis; settings: Madurella mycetomatis; for Percent fungal survival at 100 µM: read-out: Percentage survival at 100um, 100 uM A (second replicate column)
M. mycetomatis MM55 = assay: IC50 determination, 2-fold dilution series 16 to 0.03125 μM; assay type: cell-based, Madurella mycetomatis; settings: for IC50 / IC90: Madurella mycetomatis
[2] = 25 uM, mean of replicates, MM55, read-out: Percentage survival at 25um, 25 uM mean
[3] = 25 uM, replicate A, MM55, read-out: Percentage survival at 25um, 25 um A
[4] = 25 uM, replicate B, MM55, read-out: Percentage survival at 25um, 25 uM B
[5] = 25 uM, replicate C, MM55, read-out: Percentage survival at 25um, 25 uM C
[6] = mean of replicates, MM55, read-out: Percentage survival at 100um, 100 uM mean
[7] = replicate 1, MM55, read-out: Percentage survival at 100um, 100 uM A
[8] = replicate 2, MM55, read-out: Percentage survival at 100um, 100 uM A
[9] = replicate 3, MM55, read-out: Percentage survival at 100um, 100 uM A
[10] = MM55, replicate 1, read-out: IC50 1 um
[11] = MM55, replicate 2, read-out: IC50 2 um
[12] = MM55, replicate 3, read-out: IC50 3 um
[13] = 25 uM, mean, read-out: Percentage survival at 25um, 25 uM mean
[14] = 25 uM, replicate A, read-out: Percentage survival at 25um, 25 um A
[15] = 25 uM, replicate B, read-out: Percentage survival at 25um, 25 uM B
[16] = 25 uM, replicate C, read-out: Percentage survival at 25um, 25 uM C
[17] = mean, read-out: Percentage survival at 100um, 100 uM mean
[18] = replicate (first column), read-out: Percentage survival at 100um, 100 uM A
[19] = replicate (second column), read-out: Percentage survival at 100um, 100 uM A
[20] = replicate (third column), read-out: Percentage survival at 100um, 100 uM A
[21] = MM55, replicate 1, read-out: IC50 1
[22] = MM55, replicate 1, read-out: IC90 1
[23] = MM55, replicate 2, read-out: IC50 2
[24] = MM55, replicate 2, read-out: IC90 2
[25] = MM55, replicate 3, read-out: IC50 3
[26] = MM55, replicate 3, read-out: IC90 3
[27] = 25 uM, mean of three replicates, read-out: Percentage survival at 25um, 25 uM mean
[28] = mean of three replicates, read-out: Percentage survival at 100um, 100 uM mean
[29] = replicate 1, read-out: Percentage survival at 100um, 100 uM A (first replicate column)
[30] = replicate 3, read-out: Percentage survival at 100um, 100 uM A (third replicate column)
[31] = MM55, mean of three replicates, read-out: IC50 mean
[32] = MM55, mean of three replicates, read-out: IC90 mean
[33] = MM55, replicate 1, read-out: IC90 1 um
[34] = MM55, replicate 2, read-out: IC90 2 um
[35] = MM55, replicate 3, read-out: IC90 3 um
[36] = MM55, Table 3, benzimidazole carbamates, M. mycetomatis, read-out: IC50
[37] = 25 uM, mean of three, M. mycetomatis MM55, read-out: Percentage survival at 25um, 25 uM mean
[38] = 25 uM, replicate A, M. mycetomatis MM55, read-out: Percentage survival at 25um, 25 um A
[39] = 25 uM, replicate B, M. mycetomatis MM55, read-out: Percentage survival at 25um, 25 uM B
[40] = 25 uM, replicate C, M. mycetomatis MM55, read-out: Percentage survival at 25um, 25 uM C
[41] = mean of three, M. mycetomatis MM55, read-out: Percentage survival at 100um, 100 uM mean
[42] = replicate 1, M. mycetomatis MM55, read-out: Percentage survival at 100um, 100 uM A (first replicate column)
[43] = replicate 2, M. mycetomatis MM55
[44] = replicate 3, M. mycetomatis MM55, read-out: Percentage survival at 100um, 100 uM A (third replicate column)

SMILES: Cc1cc(O)c2c(c1)C(=O)c1c(I)c(O)c(I)c(O)c1C2=O [MMV1581545]
- activity at 25 µM [1, 27]: 12.4%
- activity at 25 µM [1, 14]: 10.6%
- activity at 25 µM [1, 15]: 4.74%
- activity at 25 µM [1, 16]: 21.8%
- activity at 100 µM [1, 28]: 12.4%
- activity at 100 µM [1, 29]: 10.8%
- Percent fungal survival at 100 µM ([1]; replicate 2): 14.2%
- activity at 100 µM [1, 30]: 12.3%
- Drug static or cidal (M. mycetomatis MM55): Cidal
- IC50 (M. mycetomatis MM55; [31]): > 25 µM
- IC90 (M. mycetomatis MM55; [32]): > 25 µM
- IC50 (M. mycetomatis MM55; [10]): > 25 µM
- IC90 (M. mycetomatis MM55; [33]): > 25 µM
- IC50 (M. mycetomatis MM55; [11]): > 25 µM
- IC90 (M. mycetomatis MM55; [34]): > 25 µM
- IC50 (M. mycetomatis MM55; [12]): > 25 µM
- IC90 (M. mycetomatis MM55; [35]): > 25 µM

SMILES: O=[N+]([O-])/C(Br)=C/c1ccc(Br)o1 [MMV1645051]
- activity at 25 µM [1, 13]: 1.68%
- activity at 25 µM [1, 14]: 2.2%
- activity at 25 µM [1, 15]: -0.118%
- activity at 25 µM [1, 16]: 2.96%
- activity at 100 µM [1, 17]: 7.68%
- activity at 100 µM [1, 18]: -0.809%
- activity at 100 µM [1, 19]: 7.74%
- activity at 100 µM [1, 20]: 16.1%
- Drug static or cidal (M. mycetomatis MM55): Static
- IC90 (M. mycetomatis MM55; MM55, read-out: IC90 mean): > 25 µM
- IC50 (M. mycetomatis MM55; [21]): > 25 µM
- IC90 (M. mycetomatis MM55; [22]): > 25 µM
- IC50 (M. mycetomatis MM55; [23]): 23 µM
- IC90 (M. mycetomatis MM55; [24]): > 25 µM
- IC50 (M. mycetomatis MM55; [25]): > 25 µM
- IC90 (M. mycetomatis MM55; [26]): > 25 µM

SMILES: Oc1c(C(Nc2ccccn2)c2ccccc2)ccc2cccnc12 (stereo not drawn) [MMV565773]
- activity at 25 µM [1, 27]: 15.4%
- activity at 25 µM [1, 14]: 9.67%
- activity at 25 µM [1, 15]: 6.46%
- activity at 25 µM [1, 16]: 30.1%
- activity at 100 µM [1, 28]: 11.7%
- activity at 100 µM [1, 29]: 9.08%
- Percent fungal survival at 100 µM ([1]; replicate 2): 8.24%
- activity at 100 µM [1, 30]: 17.8%
- Drug static or cidal (M. mycetomatis MM55): Cidal
- IC50 (M. mycetomatis MM55; [31]): 16.3 µM
- IC90 (M. mycetomatis MM55; [32]): 24.5 µM
- IC50 (M. mycetomatis MM55; [10]): 16.5 µM
- IC90 (M. mycetomatis MM55; [33]): 24.2 µM
- IC50 (M. mycetomatis MM55; [11]): 15.9 µM
- IC90 (M. mycetomatis MM55; [34]): 24.9 µM
- IC50 (M. mycetomatis MM55; [12]): 16.6 µM
- IC90 (M. mycetomatis MM55; [35]): 24.4 µM

SMILES: NC(=O)c1ccccc1NC(=O)c1ccc(C(=O)Nc2ccccc2C(N)=O)cc1 [MMV508427]
- activity at 25 µM [1, 37]: 86.7%
- activity at 25 µM [1, 38]: 92%
- activity at 25 µM [1, 39]: 87.7%
- activity at 25 µM [1, 40]: 80.3%
- activity at 100 µM [1, 41]: 95.7%
- activity at 100 µM [1, 42]: 98.6%
- Percent fungal survival at 100 µM [1, 43]: 92.7%
- activity at 100 µM [1, 44]: 95.8%

SMILES: Nc1nc2c(Cc3cccnc3)c[nH]c2c(=O)[nH]1 [MMV1782355]
- activity at 25 µM [1, 3]: 97.7%
- activity at 100 µM [1, 6]: 88.4%
- activity at 100 µM [1, 7]: 88.7%
- activity at 100 µM [1, 8]: 105%
- activity at 100 µM [1, 9]: 71.4%
- activity at 25 µM ([1]; read-out: Percentage survival at 25um, 25 uM B): 95.7%
- activity at 25 µM ([1]; read-out: Percentage survival at 25um, 25 uM C): 78.5%
- activity at 25 µM ([1]; read-out: Percentage survival at 25um, 25 uM mean): 90.6%

SMILES: O=C(Nc1ccc(Cl)c(C(F)(F)F)c1)C(CCCl)C(=O)Nc1ccc(Cl)c(C(F)(F)F)c1 [MMV1580840]
- activity at 25 µM [1, 37]: 56.9%
- activity at 25 µM [1, 38]: 58.8%
- activity at 25 µM [1, 39]: 55.1%
- activity at 25 µM [1, 40]: 56.9%
- activity at 100 µM [1, 41]: 36.8%
- activity at 100 µM [1, 42]: 0.352%
- Percent fungal survival at 100 µM [1, 43]: 58.3%
- activity at 100 µM [1, 44]: 51.8%

SMILES: CC(C)(C)NC(=O)[C@@H]1CN(Cc2cnc3occc3c2)CCN1C[C@@H](O)C[C@@H](Cc1ccccc1)C(=O)N[C@H]1c2ccccc2C[C@H]1O [MMV1782353]
- activity at 25 µM [1, 2]: 97.1%
- activity at 25 µM [1, 3]: 103%
- activity at 25 µM [1, 4]: 101%
- activity at 25 µM [1, 5]: 87.6%
- activity at 100 µM [1, 6]: 86.3%
- activity at 100 µM [1, 7]: 97%
- activity at 100 µM [1, 8]: 84.7%
- activity at 100 µM [1, 9]: 77.2%

SMILES: Nc1nc(-c2ccccc2)nc2[nH]nc(Nc3ccc(C(F)(F)F)cc3)c12 [MMV1633968]
- activity at 25 µM [1, 2]: 111%
- activity at 25 µM [1, 3]: 147%
- activity at 25 µM [1, 4]: 105%
- activity at 25 µM [1, 5]: 80.3%
- activity at 100 µM [1, 6]: 86.9%
- activity at 100 µM [1, 7]: 89.5%
- activity at 100 µM [1, 8]: 94%
- activity at 100 µM [1, 9]: 77.2%

Continued, in another order:

- IC50 (M. mycetomatis MM55; MM55, mean of replicates, read-out: IC50 mean): > 25 µM
- IC90 (M. mycetomatis MM55; MM55, IC90, mean of replicates, read-out: IC90 mean): > 25 µM
- IC90 (M. mycetomatis MM55; MM55, IC90, replicate 1, read-out: IC90 1 um): > 25 µM
- IC90 (M. mycetomatis MM55; MM55, IC90, replicate 2, read-out: IC90 2 um): > 25 µM
- IC90 (M. mycetomatis MM55; MM55, IC90, replicate 3, read-out: IC90 3 um): > 25 µM
- IC50 (M. mycetomatis MM55; [10]): > 25 µM
- IC50 (M. mycetomatis MM55; [11]): > 25 µM
- IC50 (M. mycetomatis MM55; [12]): > 25 µM
SMILES: COc1cc(NS(=O)(=O)c2ccc(C)cc2)c2ncccc2c1 [MMV098836]
- activity at 25 µM [1, 2]: 6.7%
- activity at 25 µM [1, 3]: 6.32%
- activity at 25 µM [1, 4]: -0.482%
- activity at 25 µM [1, 5]: 14.3%
- activity at 100 µM [1, 6]: 6.45%
- activity at 100 µM [1, 7]: 4.22%
- activity at 100 µM [1, 8]: 0.942%
- activity at 100 µM [1, 9]: 14.2%
- Drug static or cidal (M. mycetomatis MM55): Static

- IC50 (M. mycetomatis MM55; MM55, mean, read-out: IC50 mean): > 25 µM
- IC90 (M. mycetomatis MM55; MM55, read-out: IC90 mean): > 25 µM
- IC50 (M. mycetomatis MM55; [21]): > 25 µM
- IC90 (M. mycetomatis MM55; [22]): > 25 µM
- IC50 (M. mycetomatis MM55; [23]): > 25 µM
- IC90 (M. mycetomatis MM55; [24]): > 25 µM
- IC50 (M. mycetomatis MM55; [25]): > 25 µM
- IC90 (M. mycetomatis MM55; [26]): > 25 µM
SMILES: Cc1ccc(Oc2ccccc2-c2csc(NC3=NCCCN3)n2)c(C)c1 [MMV1634493]
- activity at 25 µM [1, 13]: 13.4%
- activity at 25 µM [1, 14]: 34.1%
- activity at 25 µM [1, 15]: 1.37%
- activity at 25 µM [1, 16]: 4.64%
- activity at 100 µM [1, 17]: 5.01%
- activity at 100 µM [1, 18]: 1.69%
- activity at 100 µM [1, 19]: 6.56%
- activity at 100 µM [1, 20]: 6.77%
- Drug static or cidal (M. mycetomatis MM55): Static

- IC50 (M. mycetomatis MM55; [36]): 69.1 µM
SMILES: CCCOc1ccc2nc(NC(=O)OC)[nH]c2c1 [MMV002163, Oxibendazole, reference compound]

- IC50 (M. mycetomatis MM55; [36]): 11.6 µM
SMILES: CCCCOC(=O)Nc1cc2nc(C3CCCCC3)[nH]c2cc1N1CCCC1 [MMV687730]
